The values below come from patent publication US20260071190A1, “SARS CORONAVIRUS 2 R[…] […] GENES, DERIVED FROM GH CLADE SARS CORONAVIRUS 2 OF KOREAN ISOLATE, AND THE PRODUCTION METHOD THEREFOR” (RpexBio, Inc., priority 2022, published 2026).

In the test the test system is rSARS-COV-2/YS006_Nluc P2 virus (YS006_spike). In kind it is cell-based, SARS coronavirus 2.

With `CC(C)(C)[C@H](NC(=O)C(F)(F)F)C(=O)N1C[C@H]2[C@@H]([C@H]1C(=O)N[C@H](C#N)C[C@@H]1CCNC1=O)C2(C)C` [PF-07321332], the “antiviral activity against YS006_spike reporter virus” value was “high antiviral activity”. Besides, the “inhibitory effect compared among cell lines” value (A549_ACE2 cells versus Calu-3 and Vero E6, FIG. 6B) is listed as “strongest inhibitory effect”.
